Measured values published in patent US20040048892A1, “Treatment of diseases with adamantane derivatives” (priority 2000, published 2004).
Like-named read-outs stand apart in the source and are kept apart here.

Experiments:
[1] = target: T1, α9/α10 nAChR (Rattus norvegicus, UniProt P43144+Q9JLB5); assay: Two-electrode voltage-clamp on α9/α10 nAChR expressed in Xenopus oocytes; format: cell-based
T1 construct: The coding region of the rat α10 gene; expressed in transfected cells; host or cells: Xenopus laevis oocytes (mRNA injection)
T1 sequence (P43144 26-479): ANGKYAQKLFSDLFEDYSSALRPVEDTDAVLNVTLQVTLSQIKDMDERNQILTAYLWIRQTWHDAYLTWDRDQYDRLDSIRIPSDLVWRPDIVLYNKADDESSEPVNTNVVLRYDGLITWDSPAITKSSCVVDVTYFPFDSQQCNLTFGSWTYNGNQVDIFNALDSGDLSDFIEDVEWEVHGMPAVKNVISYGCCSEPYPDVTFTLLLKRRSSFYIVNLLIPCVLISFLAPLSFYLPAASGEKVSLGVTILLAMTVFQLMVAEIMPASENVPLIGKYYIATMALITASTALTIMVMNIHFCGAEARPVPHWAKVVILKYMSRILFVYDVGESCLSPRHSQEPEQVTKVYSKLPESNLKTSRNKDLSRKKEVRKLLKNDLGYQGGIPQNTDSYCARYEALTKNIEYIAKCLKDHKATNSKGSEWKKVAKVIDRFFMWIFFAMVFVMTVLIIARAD
T1 sequence (Q9JLB5 25-447): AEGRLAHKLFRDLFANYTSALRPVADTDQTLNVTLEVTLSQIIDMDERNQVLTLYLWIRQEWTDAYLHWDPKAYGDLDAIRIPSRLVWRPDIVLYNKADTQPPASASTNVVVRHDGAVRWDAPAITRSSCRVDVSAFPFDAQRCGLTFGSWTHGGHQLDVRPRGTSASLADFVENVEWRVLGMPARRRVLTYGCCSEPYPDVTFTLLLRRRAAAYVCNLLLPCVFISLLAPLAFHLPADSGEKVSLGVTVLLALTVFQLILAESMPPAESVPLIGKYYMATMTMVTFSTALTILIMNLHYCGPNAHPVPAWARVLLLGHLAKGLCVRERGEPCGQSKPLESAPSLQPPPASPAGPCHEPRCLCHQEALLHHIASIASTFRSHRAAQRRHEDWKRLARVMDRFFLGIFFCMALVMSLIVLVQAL
Experimental: (§1) In vitro mRNA synthesis and oocyte injections were performed as previously described (Fakler et al., 1995, Cell 80, 149-154; Oliver et al., 2000, see above). The electrophysiology on oocytes was also as described previously (Oliver et al., 2000, see above). In detail, AChR subunits and SK2 channels were heterologously expressed in Xenopus oocytes. Oocytes were surgically removed from adult females and dissected manually. 4-5 day prior to electrophysiological recordings, Dumont stage VI oocytes were injected with about 50 ng RNA. For coexpression experiments, the total amount of RNA was kept constant and the different RNAs were coinjected in equal concentrations. Two-electrode voltage-clamp measurements were performed with a TurboTec 01C amplifier (npi, Tamm, Germany), using microelectrodes of 0.1 to 0.5 MΩ filled with 3 M KCl. Extracellular medium was CaNFR, containing (in mM): 120 KCl, 2.5 KCl, 2 CaCl2, 10 HEPES, pH adjusted to 7.3 with NaOH. For experiments in the absence of extracellular Ca^2+, the extracellular solution was MgNFR (in mM): 120 KCl, 2.5 KCl, 2 MgCl2, 10 HEPES, pH adjusted to 7.3 with NaOH. ACh and memantine were added from stock solutions and applied through an application system, that allowed solution exchange with a time constant of ˜1s. Currents were filtered at 100 Hz and sampled at a frequency of 1 kHz. Dose-inhibition relations obtained from electrophysiological experiments were fitted to the empirical Hill equation, [formula]
where Inorm is the normalized current, c is the blocker concentration, IC50 is the half-inhibitory concentration, and nH is the Hill coefficient. Data analysis and fitting was performed with IgorPro (Wavemetrics, Lake Oswego, Oreg.) on a Macintosh PowerPC. Unless stated otherwise, data are presented as mean±standard deviation.
The coding region of the rat α10 gene (GenBank Accession No. AF196344) was amplified from rat brain cDNA by PCR using 5′- and 3′-adapter-primers containing suitable restriction sites (GA-GACCCGGGAGCTCCACC, […] and […]). The amplified fragments were subcloned into the Xenopus oocyte expression vector pGEM-HE (gift of Dr. J. Tytgat), yielding pGEM-HE-nAChR-α10, verified by sequencing. Capped mRNAs for α9, α10 and SK2 were synthesized in vitro using the mMESSAGE mMACHINE kit (Ambion, Austin, Tex.). To detect α10 and α9 transcripts, PCR was performed using reverse transcribed RNA isolated from either OHCs (containing some Deiters cells) or supporting cells (Deiters and Hensen's cells) as template. Cells were collected from rat organs of Corti using suction glass micropipettes (diameter 10 μm). RNA was prepared from ˜100 cells of each fraction using the Qiagen RNeasy kit (Qiagen, Hilden, FRG) according to the manufacturers instructions. The oligonucleotides used as primers in the PCR reactions were chosen to span an intron in the human α9 and α10 genes to allow differentiation between products originating from cDNA and products originating from contaminating genomic DNA.
In (A) currents evoked by activation of α9/α10 nAChRs are dependent on external Ca^2+. Traces show subsequent applications of 100 μM ACh to the same oocyte in CaNFR (Ca^2+) and MgNFR (Mg^2+) at −80 mV. (B) Currents from homomeric α9 (upper trace) and heteromeric α9/α10 nAChRs (lower trace), recorded by application of 100 μM ACh in nominally Ca^2+-free external solution (MgNFR; −80 mV). (C) Current amplitudes from oocytes expressing α9 and α9/α10, recorded as in FIG. 3B (mean±standard error from 12 and 15 oocytes, respectively). (D) ACh-induced (100 μM) currents recorded from α9/α10 nAChRs in the presence of the memantine concentrations indicated. (E) Memantine dose-inhibition curves of α9/α10 nAChR. Peak currents were recorded as in (D) and normalized to the current amplitude after washout of the blocker. […] (F) I-v relations of α9/α10 nAChR recorded in the absence (black) and presence (gray trace) of 1 μM memantine in response to 2 s voltage ramps from −100 to +50 mV. […]

[2] = target: NMDA-type glutamate receptors; conditions: at −70 mV; cited from earlier work
[3] = target: T2, nAChR currents in OHCs (Rattus norvegicus, UniProt P43144+Q9JLB5); assay: Steady-state block of nAChR currents in OHCs (BAPTA intracellular solution); format: cell-based, Wistar rats; conditions: −94 mV, 200 μM ACh, 10 mM BAPTA
T2 construct: Currents through nAChRs were recorded from an OHC; from tissue; host or cells: outer hair cells in the apical turn of the organ of Corti, Wistar rat
T2 sequence (P43144 26-479): as the sequence (P43144 26-479) above
T2 sequence (Q9JLB5 25-447): as the sequence (Q9JLB5 25-447) above
Experimental: (§2) The apical turn of the organ of Corti was dissected from cochleae of three to six week old Wistar rats as described previously (Oliver et al., 1999, J Physiol (Lond) 519, 791-800; Oliver et al., 2000, Neuron 26, 595-601). The preparation was performed in a solution containing (in mM) 144 NaCl, 5.8 KCl, 0.1 CaCl2, 2.1 MgCl2, 10 HEPES, 0.7 Na2HPO4, 5.6 glucose, pH adjusted to 7.3 with NaOH. For recordings, OHCs located between half and one turn from the apex of the cochlea were chosen. If necessary, supporting cells were removed with gentle suction from a cleaning pipette carefully avoiding mechanical disturbance of the efferent nerve terminals.
Whole-cell patch-clamp recordings were performed with an Axopatch 200B amplifier (Axon Instruments, Foster City, Calif.) at room temperature (22-25° C.). Electrodes were pulled from quartz glass, had resistances of 2-3 MΩ and were filled with intracellular solution (in mM): 135 KCl, 3.5 MgCl2, 0.1 CaCl2, 5 EGTA, 5 HEPES, 2.5 Na2ATP. […]
(A) Steady-state block of nAChR currents in OHCs by memantine. Currents through nAChRs were recorded from an OHC at a holding potential of −94 mV. […] (B) Dose-inhibition relation for memantine block of nAChR currents (squares), recorded from 4 OHCs as in (A). Steady-state amplitudes were normalized to the value recorded in the absence of memantine. […]

[4] = target: neuronal α4/β2 nAChRs (Homo sapiens, UniProt P17787+P43681); conditions: at −100 mV; cited from earlier work
neuronal α4/β2 nAChRs, sequence (P43681 29-627 limits assumed): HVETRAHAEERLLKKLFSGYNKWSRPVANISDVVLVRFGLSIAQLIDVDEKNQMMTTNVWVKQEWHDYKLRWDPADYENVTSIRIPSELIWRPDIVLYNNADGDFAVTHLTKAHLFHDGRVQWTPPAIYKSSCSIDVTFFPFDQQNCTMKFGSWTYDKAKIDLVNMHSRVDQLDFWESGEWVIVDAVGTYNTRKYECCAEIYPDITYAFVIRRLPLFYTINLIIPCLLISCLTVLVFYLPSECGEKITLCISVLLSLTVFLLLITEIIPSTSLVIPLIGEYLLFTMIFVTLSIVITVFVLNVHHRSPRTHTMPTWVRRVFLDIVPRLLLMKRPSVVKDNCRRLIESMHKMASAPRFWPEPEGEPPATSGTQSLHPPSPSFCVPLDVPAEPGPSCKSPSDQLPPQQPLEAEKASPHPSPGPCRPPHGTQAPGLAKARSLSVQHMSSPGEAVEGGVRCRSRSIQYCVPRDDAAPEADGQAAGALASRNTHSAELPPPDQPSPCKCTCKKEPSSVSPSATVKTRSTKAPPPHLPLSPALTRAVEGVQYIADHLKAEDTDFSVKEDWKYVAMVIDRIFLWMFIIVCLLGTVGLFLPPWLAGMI
neuronal α4/β2 nAChRs, sequence (P17787 26-502): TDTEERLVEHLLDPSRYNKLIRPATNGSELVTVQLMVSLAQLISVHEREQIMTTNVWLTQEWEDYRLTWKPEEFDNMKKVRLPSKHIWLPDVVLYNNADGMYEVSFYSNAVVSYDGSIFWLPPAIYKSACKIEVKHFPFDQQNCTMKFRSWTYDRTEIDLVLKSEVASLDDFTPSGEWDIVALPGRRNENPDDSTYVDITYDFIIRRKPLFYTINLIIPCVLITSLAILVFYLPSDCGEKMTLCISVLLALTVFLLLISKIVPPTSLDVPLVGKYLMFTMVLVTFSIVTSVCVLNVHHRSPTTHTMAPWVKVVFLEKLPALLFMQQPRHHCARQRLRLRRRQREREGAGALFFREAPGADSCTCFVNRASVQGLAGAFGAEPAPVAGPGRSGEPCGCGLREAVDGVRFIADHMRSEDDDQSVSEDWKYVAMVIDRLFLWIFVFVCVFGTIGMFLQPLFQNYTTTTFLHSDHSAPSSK

[5] = test system: inhibitory postsynaptic currents (IPSC) in outer hair cells (OHCs); assay: Patch-clamp recording of inhibitory postsynaptic currents (IPSC) in outer hair cells; format: cell-based, Wistar rats
Experimental: as §2
Whole-cell patch-clamp recordings were performed with an Axopatch 200B amplifier (Axon Instruments, Foster City, Calif.) at room temperature (22-25° C.). Electrodes were pulled from quartz glass, had resistances of 2-3 MΩ and were filled with intracellular solution (in mM): 135 KCl, 3.5 MgCl2, 0.1 CaCl2, 5 EGTA, 5 HEPES, 2.5 Na2ATP. For one series of experiments, an intracellular solution containing the Ca^2+-chelator BAPTA was used (in mM): 120 KCl, 3.5 MgCl2, 10 BAPTA, 5 HEPES, 2.5 Na2ATP. The pH of both solutions was adjusted to pH 7.3 with KOH. Membrane potential was corrected for the electrode junction potential (−4 mV). Whole-cell series resistance ranged from 4 to 9 MΩ and was not compensated. Currents were filtered at 1 kHz and sampled at 5 kHz. The specimen were continuously superfused with extracellular solution (in mM: 144 NaCl, 5.8 KCl, 2 CaCl2, 0.9 MgCl2, 10 HEPES, 0.7 Na2HPO4, 5.6 glucose, pH adjusted to 7.3 with NaOH). Chemicals as well as depolarizing solutions were applied via a glass capillary (diameter approximately 80 μm) positioned close to the organ of Corti. […]
In FIG. 1, postsynaptic currents were recorded from OHCs in voltage-clamp experiments when cells were held at −64 mV and the whole Corti preparation was superfused with high extracellular K^+ to depolarize the presynapse. […] This dose-dependent response determined for the IPSC in OHCs is illustrated in FIG. 1B.

[6] = target: T3, nAChR-induced SK2 current (α9/α10 nAChR with SK2 channels) (Rattus norvegicus, UniProt P43144+Q9JLB5); assay: nAChR-induced SK2 current in oocytes coexpressing α9, α10 and SK2; format: cell-based; conditions: −30 mV, 100 μM ACh
T3 construct: The coding region of the rat α10 gene; expressed in transfected cells; host or cells: Xenopus laevis oocytes (mRNA co-injection)
T3 sequence (P43144 26-479): as the sequence (P43144 26-479) above
T3 sequence (Q9JLB5 25-447): as the sequence (Q9JLB5 25-447) above
Experimental: as §1, with “ACh and memantine were added from stock solutions and applied through an application system, that allowed solution exchange with a time constant of ˜1s. Currents were filtered at 100 Hz and sampled at a frequency of 1 kHz. Dose-inhibition relations obtained from electrophysiological experiments were fitted to the empirical Hill equation, [formula]” left out
(A) Application of 100 μM ACh for the time indicated to an oocyte coexpressing α9, α10, and SK2. […] Peak outward currents were recorded at −30 mV and were normalized to the values preceding memantine application.

[7] = target: T4, α9/α10 heteromeric acetylcholine receptors (Rattus norvegicus, UniProt P43144+Q9JLB5); assay: Experiment 6: voltage-clamp on alpha9/alpha10 acetylcholine receptors in Xenopus laevis oocytes; format: cell-based; conditions: cells held at −30 mV, 100 μM acetylcholine; read-out: halfmaximal inhibition concentration
T4 construct: The coding region of the rat α10 gene; expressed in transfected cells; host or cells: Xenopus laevis oocytes (mRNA injection)
T4 sequence (P43144 26-479): as the sequence (P43144 26-479) above
T4 sequence (Q9JLB5 25-447): as the sequence (Q9JLB5 25-447) above
Experimental: as §1, with “For experiments in the absence of extracellular Ca^2+, the extracellular solution was MgNFR (in mM): 120 KCl, 2.5 KCl, 2 MgCl2, 10 HEPES, pH adjusted to 7.3 with NaOH. ACh and memantine were added from stock solutions and applied through an application system, that allowed solution exchange with a time constant of ˜1s. Currents were filtered at 100 Hz and sampled at a frequency of 1 kHz. Dose-inhibition relations obtained from electrophysiological experiments were fitted to the empirical Hill equation, [formula]” left out
For further characterization of memantine treatment on the nAChR, the mRNA of alpha9/alpha10 subunits of the acetylcholine receptor were injected in oocytes of Xenopus laevis. […] In this experiment the polarization potential of the cells was measured after application of 100 μM acetylcholine in the presence or absence of memantine. […]

With `CC12CC3CC(C)(C1)CC(N)(C3)C2` [memantine, 3.5-dimethyl-1-adamantanamine] the “Increase of memantine block from +50 mV to −80 mV (factor)” value ([1]; 1 μM memantine, voltage ramps, MgNFR) was 1.6, the IC50 ([1]; CaNFR (2 mM Ca2+), 100 μM ACh, peak currents, read-out: IC50 of block of α9/α10 nAChR current) was 1.3 µM and the “Hill coefficient nH of block of α9/α10 nAChR current” value ([1]; CaNFR, 100 μM ACh) was 1.0. The IC50 ([1]; MgNFR (nominally Ca2+-free), 100 μM ACh, peak currents, read-out: IC50 of block of α9/α10 nAChR current) was 1.6 µM, the “Hill coefficient nH of block of α9/α10 nAChR current” value ([1]; MgNFR, 100 μM ACh) was 1.2 and the IC50 ([1]; summary of FIGS. 3E, 5B, read-out: affinity for memantine of α9/α10 receptors) was ~1 µM. The IC50 [2] was ~1 µM, the “Hill coefficient nH of block of nAChR currents in OHCs” value [3] was 0.9 and the IC50 ([3]; steady-state) was 1.1 µM. For the same compound, the IC50 [4] was 7 µM, the “Hill coefficient of inhibition of IPSCs” value [5] was 2 and the “fold higher concentrations required for inhibition of IPSCs than for inhibition of SK2 currents in the oocyte system” value ([5]; IPSCs in OHCs vs SK2 currents in oocytes) was 10 fold. The IC50 ([5]; Rattus norvegicus, iPSC, read-out: IC50 for inhibition of IPSC in OHCs) was ~16.6 µM, the “Hill coefficient nH of inhibition of the nAChR-induced SK2 current” value [6] was 1.1 and the IC50 ([6]; peak outward currents, read-out: IC50 of inhibition of the nAChR-induced SK2 current) was 0.7 µM. It also gave an IC50 [7] of ~1 µM.
